Experimental data published in PubChem BioAssay AID1963830 (Molecular Pharmacology Branch, DTP, NCI, 2024).

System: 922993-354-T-J3-PDC complex spheroid viability
Assay: Anticancer human tumor 922993-354-T-J3-PDC patient-derived endometrial carcinoma cell line growth inhibition [POLQ]
Settings: for IC50: curve of first compound; for viability, T/C: stronger effect = lower value
Procedure: Multicellular complex tumor spheroid response to Polymerase (POL) inhibitors (novobiocin, ART-558, RP6685) in combination with a variety of drugs and investigational agents in selected tumor cell lines
The POL inhibitors (novobiocin, ART-558, and RP6685) were evaluated both individually and in combination with standard of care and investigational anticancer small molecules within a complex spheroid model of solid tumors. . Complex spheroids include a stromal component modeled by human endothelial cells (HUVEC) and fibroblasts modeled by human mesenchymal stem cells (MSCs). The concentration ranges selected for each drug and investigational agent were based upon clinically achievable concentrations if the clinical Cmax of the agent was known.
Compounds. The drugs and investigational agents: novobiocin (NSC847541), ART-558 (NSC835418), RP-6685 (NSC848927), peposertib (NSC802822), ceralasertib (NSC780249), elimusertib (NSC800525), camonsertib (NSC841442), AZD-1390 (NSC803789), olaparib (NSC753686), talazoparib (NSC767125), rucaparib (NSC756644), sotorasib (NSC818433), MRTX-1133 (NSC836407), SN-38 (NSC673596), topotecan (NSC609699), epotoside (NSC141540), doxorubicin (NSC123127), gemcitabine (NSC613327), 5-fluorouracil (NSC19893), paclitaxel (NSC125973), vemurafenib (NSC761431), MSA-2 (NSC828583), SN-011 (NSC837082), adavosertib (NSC754352), prexasertib (NSC758257), carboplatin (NSC241240) and oxaliplatin (NSC266046), were obtained from the National Cancer Institute (NCI) Developmental Therapeutics Program Chemical Repository (21). The FDA-approved anticancer drug set is available from the Developmental Therapeutics Program at https://dtp.cancer.gov/organization/dscb/obtaining/. […] The stock solutions were prepared in dimethyl sulfoxide (DMSO, Sigma-Aldrich, St. Louis, MO, cat. D2650), except for the platinum compounds which were prepared in saline (Quality Biological, Gaithersburg, MD, cat. 114-055-101), at 800-fold the tested concentration and stored at -70 degrees C prior to their use. All drugs and investigational agents were tested over a range starting from a high concentration at or near the clinical Cmax and decreasing in half-log increments. If the clinical Cmax for an agent had not been determined, the highest concentration tested was 10 microM, except for SN-38, which was tested at a high concentration of 1 microM.
Cell Culture. All cells were maintained in an incubator at 37 degrees C and 5% CO2 with 95% humidity. The PDC lines were cultured according to standard operating procedures established by the NCI PDMR (https://pdmr.cancer.gov). Table 3 of the manuscript, lists the cell lines along with the number of the three cell types plated to form the mct-spheroids and media for tumor cell growth. After thawing, all PDC lines, except 997537-175-T-J1-PDC and 415267-285-R-J2-PDC, were cultured in Matrigel-coated flasks prepared with a working solution of 1X Ham's F-12 nutrient mix, without supplementation (Thermo Fisher Scientific, cat. 11765054), 100 U/mL penicillin-streptomycin (Thermo Fisher Scientific, cat. 15140122), and 2.5% Matrigel (Corning Inc., Corning, NY, cat. 354248) for the first three passages. The two PDC lines 997537-175-T-J1-PDC and 415267-285-R-J2-PDC were cultured on uncoated flasks. The 857933-349-R-J2-PDC line was cultured in 6C/Colon 1B media containing advanced DMEM/F-12 (Thermo Fisher Scientific, cat. 12634028), 10 mM HEPES (Thermo Fisher Scientific, cat. 15630080), 1X GlutaMAX supplement (Thermo Fisher Scientific, cat. 35050061), 0.1 mg/mL primocin (InvivoGen, San Diego, CA, cat. ant-pm-2), 10% defined fetal bovine serum, heat inactivated (HyClone Laboratories Inc., Logan, UT, cat. SH30070.03HI), 50% L-WRN conditioned media (ATCC, cat. CRL-3276), 1.25 mM N-Acetyl-L-cysteine (Sigma-Aldrich, cat. A9165), 10 mM nicotinamide (Sigma-Aldrich, cat. N0636), 1X B-27 supplement (Thermo Fisher Scientific, cat. 17504044), 1X N-2 supplement (Thermo Fisher Scientific, cat. […]
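Also: spheroids exposed to the agents for one week.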
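For viability, T/C in this document: 100% = DMSO vehicle control wells.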

Which results are given for `COc1cccc2c1C(=O)c1c(O)c3c(c(O)c1C2=O)CC(O)(C(=O)CO)CC3OC1CC(N)C(O)C(C)O1` (configuration not stated) + COC1C(OC(N)=O)C(O)C(Oc2ccc3c(O)c(NC(=O)c4ccc(O)c(CC=C(C)C)c4)c(=O)oc3c2C)OC1(C)C?
IC50 (second compound 0.0316 µM): 1350 nM; IC50 (second compound 0.1 µM): 997 nM; IC50 (second compound 0.316 µM): 1080 nM; IC50 (second compound 1 µM): 899 nM; IC50 (second compound 3.16 µM): 893 nM; IC50 (second compound 10 µM): 723 nM; viability, T/C (second compound 0.0316 µM, first compound 0.0316 µM): 104%; viability, T/C (second compound 0.0316 µM, first compound 0.1 µM): 88.8%; viability, T/C (second compound 0.0316 µM, first compound 0.316 µM): 80.7%; viability, T/C (second compound 0.0316 µM, first compound 1 µM): 53.3%; viability, T/C (second compound 0.0316 µM, first compound 3.16 µM): 33.9%; viability, T/C (second compound 0.0316 µM, first compound 10 µM): 10.1%; viability, T/C (second compound 0.1 µM, first compound 0.0316 µM): 97.2%; viability, T/C (second compound 0.1 µM, first compound 0.1 µM): 101%; viability, T/C (second compound 0.1 µM, first compound 0.316 µM): 88.6%; viability, T/C (second compound 0.1 µM, first compound 1 µM): 48%; viability, T/C (second compound 0.1 µM, first compound 3.16 µM): 21.8%; viability, T/C (second compound 0.1 µM, first compound 10 µM): 8.62%; viability, T/C (second compound 0.316 µM, first compound 0.0316 µM): 105%; viability, T/C (second compound 0.316 µM, first compound 0.1 µM): 91.9%; viability, T/C (second compound 0.316 µM, first compound 0.316 µM): 77.3%; viability, T/C (second compound 0.316 µM, first compound 1 µM): 50.7%; viability, T/C (second compound 0.316 µM, first compound 3.16 µM): 28.7%; viability, T/C (second compound 0.316 µM, first compound 10 µM): 12.9%; viability, T/C (second compound 1 µM, first compound 0.0316 µM): 102%; viability, T/C (second compound 1 µM, first compound 0.1 µM): 96.1%; viability, T/C (second compound 1 µM, first compound 0.316 µM): 68.7%; viability, T/C (second compound 1 µM, first compound 1 µM): 45.8%; viability, T/C (second compound 1 µM, first compound 3.16 µM): 30.9%; viability, T/C (second compound 1 µM, first compound 10 µM): 10.7%; viability, T/C (second compound 3.16 µM, first compound 0.0316 µM): 94.5%; viability, T/C (second compound 3.16 µM, first compound 0.1 µM): 100%; viability, T/C (second compound 3.16 µM, first compound 0.316 µM): 87.1%; viability, T/C (second compound 3.16 µM, first compound 1 µM): 44.7%; viability, T/C (second compound 3.16 µM, first compound 3.16 µM): 21.6%; viability, T/C (second compound 3.16 µM, first compound 10 µM): 10.8%; viability, T/C (second compound 10 µM, first compound 0.0316 µM): 86.4%; viability, T/C (second compound 10 µM, first compound 0.1 µM): 90.8%; viability, T/C (second compound 10 µM, first compound 0.316 µM): 68.7%; viability, T/C (second compound 10 µM, first compound 1 µM): 41.1%; viability, T/C (second compound 10 µM, first compound 3.16 µM): 22.8%; viability, T/C (second compound 10 µM, first compound 10 µM): 10.4%
